# Like-named read-outs stand apart in the source and are kept apart here.
# How the values were obtained:
# [1] = log P by HPLC on reversed-phase column (C 18), EEC Directive 79/831 Annex V.A8; assay type: physicochemical; details: 55° C.; for LOGP_HCOOH: log P (HCOOH); for LOGP_NEUTRAL: log P, neutral range; for chromatographic logP: reversed-phase HPLC column (C 18)
# Protocol: Temperature: 55° C. […] Called log P (HCOOH) in the table. […] Called log P (neutral) in the table.
# Ctenocephalides felis = Ctenocephalides felis oral test; assay type: in vivo; details: application rate 100 ppm in citrated cattle blood, after 2 days, adult cat fleas; for pest or weed control at 100 ppm: Ctenocephalides felis, po, 48 h, read-out: efficacy (kill in %)
# In short: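 Kill (%) was recorded at 2 days. Compound, dissolved in DMSO and diluted into citrated cattle blood, was offered to roughly 20 unfed adult C. felis through parafilm.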
# Lucilia cuprina = Lucilia cuprina test; assay type: in vivo; details: application rate 100 ppm, after 2 days, L1 larvae
# Protocol: Lucilia cuprina Test Solvent: dimethyl sulphoxide To produce a suitable active ingredient formulation, 10 mg of active ingredient are mixed with 0.5 ml of dimethyl sulphoxide, and the concentrate is diluted with water to the desired concentration. About 20 L1 larvae of the Australian sheep blowfly (Lucilia cuprina) are transferred into a test vessel containing minced horsemeat and the active ingredient formulation of the desired concentration. After 2 days, the kill in % is determined. 100% means that all the larvae have been killed; 0% means that no larvae have been killed.
# Spodoptera frugiperda = Spodoptera frugiperda spray test; assay type: in vivo; details: after 7 days, maize leaf discs; for pest or weed control at 100 g/ha / pest or weed control at 500 g/ha: Spodoptera frugiperda, foliar, 168 h, read-out: efficacy (caterpillars killed)
# In short: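 Efficacy in % was scored at 7 days against armyworm caterpillars placed on dried, compound-sprayed Zea mays leaf discs. Compound was dissolved in acetone/dimethylformamide and diluted in water with 1000 ppm alkylaryl polyglycol ether. 100% means all caterpillars were killed.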
# Phaedon cochleariae = Phaedon cochleariae spray test; assay type: in vivo; details: after 7 days, Chinese cabbage leaf discs; for pest or weed control at 100 g/ha / pest or weed control at 500 g/ha: Phaedon cochleariae, foliar, 168 h, read-out: efficacy (beetle larvae killed)
# In short: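 Larval kill read at day 7 as percent, where 100% means every larva dead and 0% none; larvae were placed on dried Brassica pekinensis leaf discs previously sprayed with the formulation (acetone/dimethylformamide solvent, alkylaryl polyglycol ether emulsifier, water).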
# [2] = acidic range pH 2.7, 0.1% aqueous formic acid and acetonitrile, reversed-phase column (C 18)
# [3] = HPLC on reversed-phase column (C 18)
# [4] = acidic range at pH 2.7, 0.1% aqueous formic acid and acetonitrile, HPLC on reversed-phase column (C 18)
# [5] = pH 2.7, LC-MS acidic range, pH 2.7, 0.1% formic acid/acetonitrile, read-out: log P (acidic) / log P (HCOOH)
SMILES,"LOGP_HCOOH [1, 2]","LOGP_NEUTRAL [1, 3]","LOGP_HCOOH [1, 4]","chromatographic logP [1, 5]","chromatographic logP ([1]; pH 7.8, LC-MS neutral range, pH 7.8, ammonium hydrogencarbonate/acetonitrile, read-out: log P (neutral))",efficacy (kill in %) (Ctenocephalides felis) [%],efficacy (kill in %) (Lucilia cuprina) [%],efficacy (caterpillars killed) (Spodoptera frugiperda; application rate 100 g/ha) [%],efficacy (caterpillars killed) (Spodoptera frugiperda; application rate 500 g/ha) [%],efficacy (beetle larvae killed) (Phaedon cochleariae; application rate 100 g/ha) [%],efficacy (beetle larvae killed) (Phaedon cochleariae; application rate 500 g/ha) [%],pest or weed control at 100 ppm (Ctenocephalides felis) [%],pest or weed control at 100 g/ha (Spodoptera frugiperda; application rate 100 g/ha) [%],pest or weed control at 500 g/ha (Spodoptera frugiperda; application rate 500 g/ha) [%],pest or weed control at 100 g/ha (Phaedon cochleariae; application rate 100 g/ha) [%],pest or weed control at 500 g/ha (Phaedon cochleariae; application rate 500 g/ha) [%]
O=C(NCc1ccc(C(F)(F)F)cc1)c1cc(-c2ccc(C(F)(F)F)cc2)cc(NC(=O)C2CC2)n1 [Example I-027],4.62,4.50,–,–,–,100,90,100,100,100,100,–,–,–,–,–
CC(C)(C#N)NC(=O)c1cc(-c2ccc(OC(F)(F)F)cc2)cc(NC(=O)C2CC2)n1 [Example I-108],3.77,3.64,–,–,–,100,90,100,83,–,83,–,–,–,–,–
"N#Cc1ccc(CNC(=O)c2cc(-c3ccc(OC(F)(F)F)cc3)cc(NC(=O)C3CC3)n2)cc1 [Example I-044, N-(4-Cyanobenzyl)-6-[(cyclopropylcarbonyl)amino]-4-[4-(trifluoromethoxy)phenyl]pyridine-2-carboxamide]",3.90,3.76,–,3.9,3.76,–,100,–,–,–,–,100,100,100,100,100
N#Cc1ccc(CNC(=O)c2cc(-c3ccc(OC(F)(F)F)cc3F)cc(NC(=O)C3CC3)n2)cc1 [Example I-124],–,3.78,3.87,–,–,100,100,100,100,100,100,–,–,–,–,–
N#Cc1ccc(CNC(=O)c2cc(-c3ccc(S(F)(F)(F)(F)F)cc3)cc(NC(=O)C3CC3)n2)cc1 [Example I-173],–,4.31,3.98,–,–,100,100,100,100,100,100,–,–,–,–,–
N#Cc1ccc(CNC(=O)c2cc(-c3ccc(OC(F)(F)Cl)cc3)cc(NC(=O)C3CC3)n2)cc1 [Example I-190],–,–,4.09,–,–,100,100,100,100,100,100,–,–,–,–,–
CCCCNC(=O)c1cc(-c2ccc(OC(F)(F)F)cc2)cc(NC(=O)C2CC2)n1 [Example I-113],–,4.06,4.18,–,–,100,100,83,100,–,100,–,–,–,–,–
N#Cc1ccc(CNC(=O)c2cc(-c3ccc(S(=O)(=O)C(F)(F)F)cc3)cc(NC(=O)C3CC3)n2)cc1 [Example I-096],–,3.47,–,–,–,100,100,100,100,100,100,–,–,–,–,–
N#Cc1ccc(CNC(=O)c2cc(-c3ccc(OC(F)(F)F)cc3)cc(NC(=O)C3CC3)n2)cc1F [Example I-080],4.01,3.87,–,–,–,100,100,83,100,100,100,–,–,–,–,–

# Continued, in another order:
"LOGP_HCOOH [1, 2]","LOGP_NEUTRAL [1, 3]","LOGP_HCOOH [1, 4]","chromatographic logP [1, 5]","chromatographic logP ([1]; pH 7.8, LC-MS neutral range, pH 7.8, ammonium hydrogencarbonate/acetonitrile, read-out: log P (neutral))",SMILES,efficacy (kill in %) (Ctenocephalides felis) [%],efficacy (kill in %) (Lucilia cuprina) [%],efficacy (caterpillars killed) (Spodoptera frugiperda; application rate 100 g/ha) [%],efficacy (caterpillars killed) (Spodoptera frugiperda; application rate 500 g/ha) [%],efficacy (beetle larvae killed) (Phaedon cochleariae; application rate 100 g/ha) [%],efficacy (beetle larvae killed) (Phaedon cochleariae; application rate 500 g/ha) [%],pest or weed control at 100 ppm (Ctenocephalides felis) [%],pest or weed control at 100 g/ha (Spodoptera frugiperda; application rate 100 g/ha) [%],pest or weed control at 500 g/ha (Spodoptera frugiperda; application rate 500 g/ha) [%],pest or weed control at 100 g/ha (Phaedon cochleariae; application rate 100 g/ha) [%],pest or weed control at 500 g/ha (Phaedon cochleariae; application rate 500 g/ha) [%]
–,3.40,3.42,–,–,CC(F)(F)c1ccc(-c2cc(NC(=O)C3CC3)nc(C(=O)NCc3ccc(C#N)cc3)c2)cc1 [Example I-192],100,90,100,100,100,100,–,–,–,–,–
4.12,4.01,–,–,–,N#Cc1cc(F)c(CNC(=O)c2cc(-c3ccc(OC(F)(F)F)cc3)cc(NC(=O)C3CC3)n2)c(F)c1 [Example I-082],100,100,100,100,100,100,–,–,–,–,–
–,3.89,4.02,–,–,CC(C)C(=O)N(C)c1cc(-c2ccc(OC(F)(F)F)cc2)cc(C(=O)NCc2ccc(C#N)cc2)n1 [Example I-217],80,100,100,100,–,83,–,–,–,–,–
–,–,3.81,3.81,–,"N#Cc1ccc(CNC(=O)c2cc(-c3ccc(SC(F)(F)C(F)F)cc3)cc(NC(=O)C3CC3)n2)cc1 [Example I-178, N-(4-Cyanobenzyl)-6-[(cyclopropylcarbonyl)amino]-4-{4-[(1,1,2,2-tetrafluoroethyl)sulphanyl]phenyl}pyridine-2-carboxamide]",–,100,–,–,–,–,100,100,100,100,100
3.96,3.84,–,–,–,O=C(NCc1ccc(-c2ncon2)cc1)c1cc(-c2ccc(OC(F)(F)F)cc2)cc(NC(=O)C2CC2)n1 [Example I-094],100,100,–,100,100,100,–,–,–,–,–
4.22,4.09,–,–,–,CC(C)C(=O)Nc1cc(-c2ccc(OC(F)(F)F)cc2)cc(C(=O)NCc2ccc(C#N)cc2F)n1 [Example I-081],100,100,100,100,83,100,–,–,–,–,–
3.73,–,–,–,–,N#Cc1ccc(CNC(=O)c2cc(-c3ccc(C(F)(F)F)cc3)cc(NC(=O)C3CC3)n2)cc1 [Example I-005],100,100,100,100,100,100,–,–,–,–,–
3.91,3.85,–,–,–,CC(C)C(=O)Nc1cc(-c2ccc(C(F)(F)F)cc2)cc(C(=O)NCc2ccc(C#N)cc2)n1 [Example I-015],98,100,100,100,83,100,–,–,–,–,–
–,2.95,3.07,–,–,O=C(NC1COC1)c1cc(-c2ccc(OC(F)(F)F)cc2)cc(NC(=O)C2CC2)n1 [Example I-117],100,95,100,100,–,100,–,–,–,–,–
3.94,–,–,–,–,CC(C#N)NC(=O)c1cc(-c2ccc(C(F)(F)C(F)(F)F)c(F)c2)cc(NC(=O)C2CC2)n1 (stereo not shown) [Example I-245],100,80,100,100,100,100,–,–,–,–,–
